Tests used:
[1] = target: T1, Sigma non-opioid intracellular receptor 1 (Rattus norvegicus, UniProt Q9R0C9); experiment: Displacement of [125I]IACoc from sigma 1 receptor in rat liver microsomes
[2] = target: T2, Sigma non-opioid intracellular receptor 1 (Homo sapiens, UniProt Q99720); experiment: Displacement of [125I]N-IACoc from sigma 1 receptor (unknown origin)
[3] = target: T2, Sigma non-opioid intracellular receptor 1; experiment: Displacement of [125I]N-IAC44 from sigma 1 receptor (unknown origin)
[4] = target: T1, Sigma non-opioid intracellular receptor 1; experiment: Displacement of [3H]-(+)-pentazocine from sigma 1 receptor in rat liver homogenates; assay type: tissue-based

T2 sequence (Q99720 whole entry): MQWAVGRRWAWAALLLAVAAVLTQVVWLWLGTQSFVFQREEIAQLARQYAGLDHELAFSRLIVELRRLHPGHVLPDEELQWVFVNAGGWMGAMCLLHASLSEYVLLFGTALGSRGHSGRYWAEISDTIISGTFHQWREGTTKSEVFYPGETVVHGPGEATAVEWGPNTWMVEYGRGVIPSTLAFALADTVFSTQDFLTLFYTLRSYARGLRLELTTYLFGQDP
T1 sequence (Q9R0C9 whole entry): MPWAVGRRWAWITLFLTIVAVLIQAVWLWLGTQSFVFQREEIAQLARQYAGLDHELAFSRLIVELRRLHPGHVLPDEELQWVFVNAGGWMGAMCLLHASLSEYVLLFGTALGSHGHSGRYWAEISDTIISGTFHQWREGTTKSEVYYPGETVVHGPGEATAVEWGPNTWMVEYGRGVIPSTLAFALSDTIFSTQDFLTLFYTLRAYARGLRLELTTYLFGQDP

## COC(=O)[C@H]1[C@@H](OC(=O)c2ccc(N=[N+]=[N-])c([125I])c2)C[C@@H]2CC[C@H]1N2C
[1]
  Ki: 0.126 nM

## COC(=O)[C@H]1[C@@H](OC(=O)c2ccccc2)C[C@@H]2CC[C@H]1N2CCc1ccc(N=[N+]=[N-])c([125I])c1
[2]
  Kd: 11 nM

## CCCN(CCCc1ccccc1)CCc1ccc(N=[N+]=[N-])c([125I])c1
[3]
  Kd: 7.2 nM

## CN(C)CCc1c[nH]c2ccccc12 [N,N-DIMETHYLTRYPTAMINE]
[4]
  Ki: 15400 nM

From ChEMBL document CHEMBL3102847, “Structure of the σ1 receptor and its ligand binding site” (J Med Chem, 2013)
